Results on 4 compounds are retold here after ChEMBL document CHEMBL1134145, “Carbohydrate recognition of gramicidin S analogues in aqueous medium” (Bioorg Med Chem Lett, 2001).

Series [1] is described as follows: Dissociation constant of compound with Lactulose was determined. Type of series: physicochemical.
Series [2] in a line: Dissociation constant of compound with Fructose was determined. In kind it is physicochemical.

The structures appear in SMILES notation.

In the case of `NCCC[C@@H]1NC(=O)[C@H](CCC(N)=O)NC(=O)[C@@H]2CCCN2C(=O)[C@@H](Cc2ccccc2)NC(=O)[C@H](Cc2c[nH]c3ccccc23)NC(=O)[C@H](CCCN)NC(=O)[C@H](CCC(N)=O)NC(=O)[C@@H]2CCCN2C(=O)[C@@H](Cc2ccccc2)NC(=O)[C@H](Cc2c[nH]c3ccccc23)NC1=O`, binding in series [1] was put at a Kd of 30 µM.
On to `NCCC[C@@H]1NC(=O)[C@H](CC(N)=O)NC(=O)[C@@H]2CCCN2C(=O)[C@@H](Cc2ccccc2)NC(=O)[C@H](Cc2c[nH]c3ccccc23)NC(=O)[C@H](CCCN)NC(=O)[C@H](CC(N)=O)NC(=O)[C@@H]2CCCN2C(=O)[C@@H](Cc2ccccc2)NC(=O)[C@H](Cc2c[nH]c3ccccc23)NC1=O`, for which the values for the Kd in series [1] and in series [2] were 200 µM and 1500 µM, respectively.
On to `NCCC[C@@H]1NC(=O)[C@H](CC(=O)O)NC(=O)[C@@H]2CCCN2C(=O)[C@@H](Cc2ccccc2)NC(=O)[C@H](Cc2c[nH]c3ccccc23)NC(=O)[C@H](CCCN)NC(=O)[C@H](CC(N)=O)NC(=O)[C@@H]2CCCN2C(=O)[C@@H](Cc2ccccc2)NC(=O)[C@H](Cc2c[nH]c3ccccc23)NC1=O`, for which the Kd amounted to 180 µM in series [1] and 4700 µM in series [2].
In series [2], `NCCC[C@@H]1NC(=O)[C@H](CC(=O)O)NC(=O)[C@@H]2CCCN2C(=O)[C@@H](Cc2ccccc2)NC(=O)[C@H](Cc2c[nH]c3ccccc23)NC(=O)[C@H](CCCN)NC(=O)[C@H](CC(=O)O)NC(=O)[C@@H]2CCCN2C(=O)[C@@H](Cc2ccccc2)NC(=O)[C@H](Cc2c[nH]c3ccccc23)NC1=O` had a Kd of 1500 µM.

What is called Kd is a measure of binding affinity in units of concentration. A higher Kd goes with a looser complex.
